These results are taken from ChEMBL document CHEMBL3596092, “Design, synthesis and biological evaluation of 4-(alkyloxy)-6-methyl-2H-pyran-2-one derivatives as quorum sensing inhibitors” (Bioorg Med Chem Lett, 2015).

Calls of active or inactive are those of the source. No cut-off for these calls is given here.

What is called inhibition is how much of the control response was suppressed.

Series [1] addresses T1, Transcriptional activator protein LasR (Pseudomonas aeruginosa (strain ATCC 15692 / PAO1 / 1C / PRS 101 / LMG12228)) (UniProt P25084).
T1 sequence (whole entry): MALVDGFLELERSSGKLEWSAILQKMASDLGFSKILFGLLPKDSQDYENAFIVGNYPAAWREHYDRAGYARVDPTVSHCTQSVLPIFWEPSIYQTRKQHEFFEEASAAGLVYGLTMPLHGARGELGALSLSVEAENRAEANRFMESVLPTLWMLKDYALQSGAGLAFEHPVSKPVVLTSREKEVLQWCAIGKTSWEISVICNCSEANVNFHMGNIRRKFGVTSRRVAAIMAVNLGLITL
The series can be described thus: Inhibition of LasR in Pseudomonas aeruginosa PA14 assessed as reduction in biofilm formation at 1 to 1000 uM incubated at 37 degC for 24 hrs by crystal violet staining based static biofilm formation assay.

In series [2] the target is T1, Transcriptional activator protein LasR (Pseudomonas aeruginosa (strain ATCC 15692 / PAO1 / 1C / PRS 101 / LMG12228)). As to the kind of experiment: Inhibition of LasR in Pseudomonas aeruginosa PA14 assessed as reduction in rhlA gene expression at 10 uM by RT-qPCR method. (Quantitative PCR measures a nucleic acid by following its amplification.)
Series [3] shares this target. The series can be described thus: Inhibition of Pseudomonas aeruginosa LasR expressed in Pseudomonas aeruginosa PA14 over-expressing pUCPLasR assessed as reduction in biofilm formation at 0.1 to 100 uM incubated at 37 degC for 24 hrs by crystal violet staining based static biofilm formation assay.
The target is the same in series [4]. The series can be described thus: Inhibition of LasR in Pseudomonas aeruginosa PA14 assessed as reduction in mvfR gene expression at 10 uM by RT-qPCR method.
The target is the same in series [5]. The series can be described thus: Inhibition of LasR in Pseudomonas aeruginosa PA14 assessed as reduction in pqsH gene expression at 10 uM by RT-qPCR method.
Series [6] shares this target. The series can be described thus: Inhibition of LasR in Pseudomonas aeruginosa PA14 assessed as reduction in biofilm formation incubated at 37 degC for 24 hrs by crystal violet staining based static biofilm formation assay.
Series [7] shares this target. The series can be described thus: Inhibition of LasR in Pseudomonas aeruginosa PA14 assessed as reduction in pqsC gene expression at 10 uM by RT-qPCR method.
For series [8] the target is unchanged. As to the kind of experiment: Inhibition of LasR in Pseudomonas aeruginosa PA14 assessed as reduction in phzE1 gene expression at 10 uM by RT-qPCR method.
The target is the same in series [9]. As to the kind of experiment: Inhibition of LasR in Pseudomonas aeruginosa PA14 assessed as reduction in rhlI gene expression at 10 uM by RT-qPCR method.
The test system of series [10] is Pseudomonas aeruginosa. The series can be described thus: Toxicity against Pseudomonas aeruginosa PA14 assessed as effect on bacterial growth at 1 to 10 uM incubated at 37 degC for 13 hrs.
The target in series [11] is T1, Transcriptional activator protein LasR (Pseudomonas aeruginosa (strain ATCC 15692 / PAO1 / 1C / PRS 101 / LMG12228)). As to the kind of experiment: Inhibition of LasR in Pseudomonas aeruginosa PA14 assessed as reduction in pqsD gene expression at 10 uM by RT-qPCR method.
Series [12] has the same target. As to the kind of experiment: Inhibition of LasR in Pseudomonas aeruginosa PA14 assessed as reduction in lasI gene expression at 10 uM by RT-qPCR method.
For series [13], the system named is Pseudomonas aeruginosa. As to the kind of experiment: Toxicity against Pseudomonas aeruginosa PA14 assessed as effect on house keeping proC gene expression at 10 uM by RT-qPCR method.
Series [14] addresses T1, Transcriptional activator protein LasR (Pseudomonas aeruginosa (strain ATCC 15692 / PAO1 / 1C / PRS 101 / LMG12228)). The series can be described thus: Inhibition of LasR in Pseudomonas aeruginosa PA14 assessed as reduction in lasB gene expression at 10 uM by RT-qPCR method.
Series [15] has the same target. As to the kind of experiment: Inhibition of LasR in Pseudomonas aeruginosa PA14 assessed as reduction in lasR gene expression at 10 uM by RT-qPCR method.
The target is the same in series [16]. The series can be described thus: Inhibition of LasR in Pseudomonas aeruginosa PA14 assessed as reduction in rhlB gene expression at 10 uM by RT-qPCR method.
Series [17] shares this target. The series can be described thus: Inhibition of LasR in Pseudomonas aeruginosa PA14 assessed as reduction in rhlR gene expression at 10 uM by RT-qPCR method.
For series [18] the target is unchanged. As to the kind of experiment: Inhibition of LasR in Pseudomonas aeruginosa PA14 assessed as reduction in phnB gene expression at 10 uM by RT-qPCR method.
Series [19] has the same target. As to the kind of experiment: Inhibition of LasR in Pseudomonas aeruginosa PA14 assessed as reduction in lasA gene expression at 10 uM by RT-qPCR method.
The target is the same in series [20]. The series can be described thus: Inhibition of LasR in Pseudomonas aeruginosa PA14 assessed as reduction in biofilm formation at 0.1 to 10 uM incubated at 37 degC for 24 hrs by crystal violet staining based static biofilm formation assay.
For series [21] the target is unchanged. The series can be described thus: Inhibition of LasR in Pseudomonas aeruginosa PA14 assessed as reduction in phzC1 gene expression at 10 uM by RT-qPCR method.

As to `CCCCCCCCCCCCCOc1cc(C)oc(=O)c1`, the inhibition in [1] was found to be 6%.
Consider `O=C1C=C(Br)/C(=C/Br)O1`, for which the inhibition in [1] stood at 13%.
Take `CCCCCCCCCCCCOc1cc(C)oc(=O)c1`: the inhibition entry in [2], in series [3], in series [4], in [5], in [7] and in series [8] was “Active” each time. The inhibition result in series [9], in series [11], in [12], in series [14], in series [15] and in [16] was “Active” in each case. For the same molecule, the inhibition entry in series [17], in series [18], in series [19] and in series [21] was “Active” in each case. Also, the inhibition result is “Dose-dependent effect” in series [6], 11% in series [1] and 6% in series [20]. Further, the Activity result in the series on Pseudomonas aeruginosa [10] and with Pseudomonas aeruginosa [13] was “Non-toxic” throughout.
Consider `CCCCCCCCCCCCCCOc1cc(C)oc(=O)c1`, for which the inhibition in [1] came to 6%.
